≈ marks a conversion by molar mass, not a printed value.
How the values were obtained:
[1] = Combined toxicity of chlorpyrifos and butachlor to zebrafish larvae; conditions: in vivo, read-out: LC50 (95% CI) of the component in the mixture
Experimental: (§1) F. Combined toxicity test: The toxicity test is performed on zebrafish larvae and Japanese medaka larvae, the test procedure is as follows:
a. Zebrafish larvae: The LC50 value of zebrafish larvae with a single pesticide for 96 h is a toxic unit, and 5-7 different concentrations with a geometrical ratio, test method and calculation of LC50 value of each exposure time are the same as 1.4.2;
(§2) H. Data processing: Calculating the LC50 value of pesticides on larvae and their 95% confidence limits by probit analysis based on the number and time of dead fish larvae, and using 95% confidence limit of LC50 as the criterion to determine whether the toxicity difference of different drugs is significant, LC50≤0.1 mg a.i. L^−1, is hypertoxic; 0.1<LC50≤1.0 mg a.i. L^−1, is high toxicity; 1.0<LC50≤10.0 mg a.i. L^−1, is medium toxicity; LC50>10.0 mg a.i. L^−1, is low toxicity, the maximum allowable concentration of MPC employs 100 as the protection factor, the formula is: MPC=96 h-LC50/100, to get the maximum allowable concentration of a poison.

[2] = Single toxicity of chlorpyrifos and butachlor to zebrafish larvae; conditions: in vivo, other: immersion in test solution (waterborne exposure), read-out: LC50 (95% CI); for LC50 at 24 h: exposure time 24 h; for LC50 at 48 h: exposure time 48 h; for LC50 at 72 h: exposure time 72 h; for LC50 at 96 h: exposure time 96 h
Experimental: (§3) H. Data processing: Calculating the LC50 value of pesticides on larvae and their 95% confidence limits by probit analysis based on the number and time of dead fish larvae, and using 95% confidence limit of LC50 as the criterion to determine whether the toxicity difference of different pesticides is significant, LC50≤0.1 mg a.i. L^−1, is hypertoxic; 0.1<LC50≤1.0 mg a.i. L^−1, is high toxicity; 1.0<LC50≤[…] a.i. L^−1, is medium toxicity; LC50>10.0 mg a.i. L^−1 is low toxicity. The maximum allowable concentration of MPC employs 100 as the protection factor, the formula is: MPC=96 h-LC50/100, to get the maximum allowable concentration of a poison.
as §2
(§4) Wherein the larvae in the migratory period in step E refer to fish 120 h after fertilization of eggs, for improving the accuracy of the test.

[3] = Single toxicity of chlorpyrifos and butachlor to Japanese medaka larvae; conditions: in vivo, other: immersion in test solution (waterborne exposure), read-out: LC50 (95% CI); for LC50 at 24 h: exposure time 24 h; for LC50 at 48 h: exposure time 48 h; for LC50 at 72 h: exposure time 72 h; for LC50 at 96 h: exposure time 96 h
Experimental: as §3, §2, §4

[4] = Combined toxicity of chlorpyrifos and butachlor to Japanese medaka larvae; conditions: in vivo
Experimental: as §1
(§5) b. Japanese medaka: A single pesticide is used to measure the LC50 value of Japanese medaka for 96 hours, mixing chlorpyrifos and butachlor to form binary mixed systems with different ratios of 1:4, 2:3, 1:1, 3:2 and 4:1, according to the pre-experiment results, 5-7 different concentrations are set at equal logarithmic intervals to determine the combined toxicity of the mixed system to Japanese medaka, the method is the same as the determination of single toxicity, the total concentration of the binary mixture is the sum of the concentrations of the two components;
as §5, with “different concentrations with a geometrical ratio are set” for “different concentrations are set”, “to Japanese medaka the method” for “to Japanese medaka, the method”, “as the determination, of single” for “as the determination of single”
as §2

[5] = Single toxicity of chlorpyrifos and butachlor to zebrafish embryos; type: in vivo; conditions: in vivo, other: immersion in test solution (waterborne exposure), read-out: LC50 (95% CI); for LC50 at 24 h: exposure time 24 h; for LC50 at 48 h: exposure time 48 h; for LC50 at 72 h: exposure time 72 h; for LC50 at 96 h: exposure time 96 h
Experimental: (§6) D. Toxicity of pesticides to zebrafish embryos: On the basis of clearing the effective concentration range of pesticides in pre-tests, diluting the pesticide stock solution with standard dilution water to 5-7 concentrations with a geometrical ratio, and using a 24 well cell culture dish for exposure apparatus, the volume of each well is 3 mL, 20 wells are the same experimental concentration, and the remaining 4 wells are blank controls; during the experiment, of test solution and 1 randomly selected 3 hpf (hourpost-fertilization) normal fertilized embryo at the embryo shield stage were put into every well, set up 3 replicates at each concentration, every culture dish as a replicate, and incubating in a multifunctional incubator at 26±1° C. with a photoperiod of 14 h (light): 10 h (dark);
(§7) Preferably, in the step D, the test solution needs to be replaced every 24 h, observing and microscopical observing the CK group and the exposed group every 24 h, recording the number of embryos with normal development and malformations, and calculating the number of embryos hatched and larvae malformations, the experiment lasts 96 hours.
as §6, with “24-well” for “24 well”, “poisoning” for “exposure”, “experiment, 2 mL” for “experiment,”, “C. V:” for “C.”
as §2
as §7, with “Wherein” for “Preferably,”, “hours, for structural analysis.” for “hours.”

zebrafish embryos = assay: as above; type: in vivo
Experimental: as §6, §7
as §6, with “24-well” for “24 well”, “poisoning” for “exposure”, “experiment, 2 mL” for “experiment,”, “C. V:” for “C.”
as §2
as §7, with “Wherein” for “Preferably,”, “hours, for structural analysis.” for “hours.”

[6] = Japanese medaka larvae, chlorpyrifos:butachlor ratio 4:1, 24 h, read-out: LC50 (95% CI) of the component in the mixture
[7] = Japanese medaka larvae, chlorpyrifos:butachlor ratio 4:1, 96 h, read-out: LC50 (95% CI) of the component in the mixture
[8] = other: immersion in test solution (waterborne exposure), Japanese medaka larvae, chlorpyrifos:butachlor ratio 1:1, 24 h, read-out: LC50 (95%) CI of the component in the mixture
[9] = other: immersion in test solution (waterborne exposure), Japanese medaka larvae, chlorpyrifos:butachlor ratio 1:1, 48 h, read-out: LC50 (95%) CI of the component in the mixture
[10] = other: immersion in test solution (waterborne exposure), Japanese medaka larvae, chlorpyrifos:butachlor ratio 1:1, 72 h, read-out: LC50 (95%) CI of the component in the mixture
[11] = other: immersion in test solution (waterborne exposure), Japanese medaka larvae, chlorpyrifos:butachlor ratio 1:1, 96 h, read-out: LC50 (95%) CI of the component in the mixture
[12] = other: immersion in test solution (waterborne exposure), Japanese medaka larvae, chlorpyrifos:butachlor ratio 4:1, 48 h, read-out: LC50 (95% CI) of the component in the mixture
[13] = other: immersion in test solution (waterborne exposure), Japanese medaka larvae, chlorpyrifos:butachlor ratio 4:1, 72 h, read-out: LC50 (95% CI) of the component in the mixture
[14] = other: immersion in test solution (waterborne exposure), chlorpyrifos:butachlor ratio 1:4, 24 h, read-out: LC50 (95% CI) of the component in the mixture
[15] = other: immersion in test solution (waterborne exposure), chlorpyrifos:butachlor ratio 1:4, 48 h, read-out: LC50 (95% CI) of the component in the mixture
[16] = other: immersion in test solution (waterborne exposure), chlorpyrifos:butachlor ratio 1:4, 72 h, read-out: LC50 (95% CI) of the component in the mixture
[17] = other: immersion in test solution (waterborne exposure), chlorpyrifos:butachlor ratio 1:4, 96 h, read-out: LC50 (95% CI) of the component in the mixture
[18] = other: immersion in test solution (waterborne exposure), chlorpyrifos:butachlor ratio 2:3, 24 h, read-out: LC50 (95% CI) of the component in the mixture
[19] = other: immersion in test solution (waterborne exposure), chlorpyrifos:butachlor ratio 2:3, 48 h, read-out: LC50 (95% CI) of the component in the mixture
[20] = other: immersion in test solution (waterborne exposure), chlorpyrifos:butachlor ratio 2:3, 72 h, read-out: LC50 (95% CI) of the component in the mixture
[21] = other: immersion in test solution (waterborne exposure), chlorpyrifos:butachlor ratio 2:3, 96 h, read-out: LC50 (95% CI) of the component in the mixture
[22] = other: immersion in test solution (waterborne exposure), chlorpyrifos:butachlor ratio 3:2, 24 h, read-out: LC50 (95% CI) of the component in the mixture
[23] = other: immersion in test solution (waterborne exposure), chlorpyrifos:butachlor ratio 3:2, 48 h, read-out: LC50 (95% CI) of the component in the mixture
[24] = other: immersion in test solution (waterborne exposure), chlorpyrifos:butachlor ratio 3:2, 72 h, read-out: LC50 (95% CI) of the component in the mixture
[25] = other: immersion in test solution (waterborne exposure), chlorpyrifos:butachlor ratio 3:2, 96 h, read-out: LC50 (95% CI) of the component in the mixture

CCCCOCN(C(=O)CCl)c1c(CC)cccc1CC [Butachlor, butachlor]
LC50 at 24 h ([1]; equitoxic ratio): 0.91 µg/mL
LC50 at 48 h ([1]; equitoxic ratio): 0.72 µg/mL
LC50 at 72 h ([1]; equitoxic ratio): 0.45 µg/mL
LC50 at 96 h ([1]; equitoxic ratio): 0.26 µg/mL
LC50 at 24 h ([1]; equivalent concentration (1:1)): 0.18 µg/mL
LC50 at 48 h ([1]; equivalent concentration (1:1)): 0.16 µg/mL
LC50 at 72 h ([1]; equivalent concentration (1:1)): 0.14 µg/mL
LC50 at 96 h ([1]; equivalent concentration (1:1)): 0.11 µg/mL
LC50 at 24 h [2]: 0.67 µg/mL (≈ 2.15 µM)
LC50 at 48 h [2]: 0.59 µg/mL (≈ 1.89 µM)
LC50 at 72 h [2]: 0.51 µg/mL (≈ 1.64 µM)
LC50 at 96 h [2]: 0.44 µg/mL (≈ 1.41 µM)
LC50 at 24 h [3]: 0.85 µg/mL (≈ 2.73 µM)
LC50 at 48 h [3]: 0.72 µg/mL (≈ 2.31 µM)
LC50 at 72 h [3]: 0.54 µg/mL (≈ 1.73 µM)
LC50 at 96 h [3]: 0.43 µg/mL (≈ 1.38 µM)
LC50 at 24 h [4, 6]: 0.2 µg/mL
LC50 at 96 h [4, 7]: 0.036 µg/mL
LC50 at 24 h [4, 8]: 1.53 µg/mL
LC50 at 48 h [4, 9]: 1.22 µg/mL
LC50 at 72 h [4, 10]: 0.93 µg/mL
LC50 at 96 h [4, 11]: 0.81 µg/mL
LC50 at 48 h [4, 12]: 0.15 µg/mL
LC50 at 72 h [4, 13]: 0.11 µg/mL
LC50 at 24 h [4, 14]: 2.29 µg/mL
LC50 at 48 h [4, 15]: 1.3 µg/mL
LC50 at 72 h [4, 16]: 1.14 µg/mL
LC50 at 96 h [4, 17]: 0.88 µg/mL
LC50 at 24 h [4, 18]: 2.29 µg/mL
LC50 at 48 h [4, 19]: 0.66 µg/mL
LC50 at 72 h [4, 20]: 0.43 µg/mL
LC50 at 96 h [4, 21]: 0.35 µg/mL
LC50 at 24 h [4, 22]: 1.48 µg/mL
LC50 at 48 h [4, 23]: 1.29 µg/mL
LC50 at 72 h [4, 24]: 0.87 µg/mL
LC50 at 96 h [4, 25]: 0.66 µg/mL
LC50 at 24 h [5]: 32.8 µg/mL (≈ 105 µM)
LC50 at 48 h [5]: 5.82 µg/mL (≈ 18.7 µM)
LC50 at 72 h [5]: 4.42 µg/mL (≈ 14.2 µM)
LC50 at 96 h [5]: 1.93 µg/mL (≈ 6.19 µM)
effects of exposure on zebrafish embryo development (zebrafish embryos): egg coagulation, pericardial edema, yolk sac edema, and spinal curvature
times more toxic to zebrafish embryos than chlorpyrifos (zebrafish embryos; 96 h): 6.75 times

CCOP(=S)(OCC)Oc1nc(Cl)c(Cl)cc1Cl [Chlorpyrifos, chlorpyrifos]
LC50 at 24 h ([1]; equitoxic ratio): 0.55 µg/mL
LC50 at 48 h ([1]; equitoxic ratio): 0.43 µg/mL
LC50 at 72 h ([1]; equitoxic ratio): 0.27 µg/mL
LC50 at 96 h ([1]; equitoxic ratio): 0.16 µg/mL
LC50 at 24 h ([1]; equivalent concentration (1:1)): 0.18 µg/mL
LC50 at 48 h ([1]; equivalent concentration (1:1)): 0.16 µg/mL
LC50 at 72 h ([1]; equivalent concentration (1:1)): 0.14 µg/mL
LC50 at 96 h ([1]; equivalent concentration (1:1)): 0.11 µg/mL
LC50 at 24 h [2]: 0.67 µg/mL (≈ 1.91 µM)
LC50 at 48 h [2]: 0.39 µg/mL (≈ 1.11 µM)
LC50 at 72 h [2]: 0.34 µg/mL (≈ 0.97 µM)
LC50 at 96 h [2]: 0.27 µg/mL (≈ 0.77 µM)
LC50 at 24 h [3]: 0.75 µg/mL (≈ 2.14 µM)
LC50 at 48 h [3]: 0.4 µg/mL (≈ 1.14 µM)
LC50 at 72 h [3]: 0.35 µg/mL (≈ 0.998 µM)
LC50 at 96 h [3]: 0.24 µg/mL (≈ 0.685 µM)
LC50 at 24 h [4, 6]: 0.8 µg/mL
LC50 at 96 h [4, 7]: 0.14 µg/mL
LC50 at 24 h [4, 8]: 1.53 µg/mL
LC50 at 48 h [4, 9]: 1.22 µg/mL
LC50 at 72 h [4, 10]: 0.93 µg/mL
LC50 at 96 h [4, 11]: 0.81 µg/mL
LC50 at 48 h [4, 12]: 0.61 µg/mL
LC50 at 72 h [4, 13]: 0.43 µg/mL
LC50 at 24 h [4, 14]: 0.57 µg/mL
LC50 at 48 h [4, 15]: 0.33 µg/mL
LC50 at 72 h [4, 16]: 0.28 µg/mL
LC50 at 96 h [4, 17]: 0.22 µg/mL
LC50 at 24 h [4, 18]: 1.52 µg/mL
LC50 at 48 h [4, 19]: 0.44 µg/mL
LC50 at 72 h [4, 20]: 0.28 µg/mL
LC50 at 96 h [4, 21]: 0.23 µg/mL
LC50 at 24 h [4, 22]: 2.23 µg/mL
LC50 at 48 h [4, 23]: 1.94 µg/mL
LC50 at 72 h [4, 24]: 1.31 µg/mL
LC50 at 96 h [4, 25]: 0.99 µg/mL
LC50 at 24 h [5]: 170 µg/mL (≈ 485 µM)
LC50 at 48 h [5]: 120 µg/mL (≈ 341 µM)
LC50 at 72 h [5]: 63.4 µg/mL (≈ 181 µM)
LC50 at 96 h [5]: 13 µg/mL (≈ 37.2 µM)
effects of exposure on zebrafish embryo development (zebrafish embryos): egg coagulation, pericardial edema, yolk sac edema, and spinal curvature

From patent publication US20200284781A1, “TEST METHOD OF COMBINED TOXICITY FOR CH[…] BUTACHLOR” (priority 2019, published 2020)
